Eleven compounds from US10117890B2, “Methods and compositions for treating pain” (Academia Sinica, priority 2012, dated 2018) can be followed below.

In assay [1] the test system is acid(ASIC3)-induced chronic muscle pain. Put plainly: Acid-induced chronic muscle pain model (repeated intramuscular acid injection, von Frey test). The format is in vivo, mice. The conditions noted are these: for acid-induced hyperalgesia, co-injection with acidic saline: 1 nmole, i.m. The source says:
Adult (8- to 12-wk-old) C57/BL6 mice were used. All procedures followed the Guide for the Use of Laboratory Animals (National Academy Press, Washington D.C., USA) and were approved by the Institutional Animal Care and Use Committee of Academia Sinica. We aimed to minimize the number of animals used and their suffering without compromising the quality of the experiments. The generation and genotyping of Tac1^−/− mice and Asic3^−/− mice were as described. Both null mutant mice were backcrossed to C57/BL6 for 10 generations to establish a congenic strain. Congenic Tac1^−/− Asic3^−/− mice were offspring of Tacl^+/− and Asic3^+/− intercrosses.
Mice received an intramuscular acid injection in the gastrocnemius muscle (GM) containing 20 μl acid saline (pH 4.0) with or without (Sar^9, Met(O2)^11)-substance P (SP; 4, 10, or 40 μM) or 100 μM RP67580 or 200 μM XE991. Mechanical hyperalgesia was assessed by applying a 0.2-mN von Frey filament to the plantar surface of both hind paws of mice. Mice were acclimatized in an acrylic cubicle for 60 min before testing. A positive response was defined as the foot lifting when the von Frey filament was applied. For each paw, the filament was applied 5 times at 30-sec intervals. Responses of the paw to mechanical stimuli were measured before injection and at 4 and 24 hr and 5 days after the first acid injection (day 0) and at 4, 24, and 72 hr and 1 week after the second acid injection (day 5). For single-injection experiments, responses to mechanical stimuli were measured before the injection, at 4 hr and at 1, 3, 5, 7, 9, 11, 13, 15 and 22 days after the injection or at 4, 24, 48 hr and 7 and 14 days after the injection. NK1-selective agonist ((Sar^9, Met(O2)^11)—SP) was from Sigma Chemical (St. Louis, Mo.). NK1-selective antagonist (RP67580) and XE991 were from Tocris (Avonmouth, UK). The experimenters were blinded to the experimental manipulations. The person who conducted von Frey test had no information of the mouse genotypes or drug injections.

The test system of assay [2] is muscle nociceptors (ASIC3-positive muscle afferent DRG neurons expressing ISP-O). Put plainly: Whole-cell patch-clamp recording of outward currents in muscle afferent DRG neurons. The format is cell-based, mice. The conditions noted are these: for induction of outward current in ASIC3/SP-expressing muscle DRG neurons: SP-sensitive muscle nociceptors; for inhibition of T1-11-induced outward current (IT1-11) by adenosine receptor antagonists: muscle nociceptors. Here is the method:
The digested DRG neurons were washed with fetal calf serum (FCS)-free DMEM or DMEM containing 10% FCS during each treatment. Fully digested DRGs were triturated and plated on poly-L-lysine-coated cover slides. Cell cultures were maintained in a 5% CO2 incubator at 37° C.
Whole-cell patch-clamp recordings of muscle-afferent neurons involved use of Axopatch MultiClamp 700B (Axon Instruments). Neurons with membrane potential >−40 mV were discarded. The bridge was balanced in current-clamp recording, and the series resistance was compensated 70% in voltage-clamp recording with […] 700B compensation circuitry. All experiments were performed at room temperature (21-25° C.) and completed within 30 hr post-seeding. Unless specifically mentioned, the patch pipettes were prepared in 1-5 MΩ and filled with internal solution containing (in mM) 100 KCl, 2 Nae-ATP, 0.3 Na3-GTP, 10 EGTA, 5 MgCl2, and 40 HEPES, adjusted to pH 7.4 with KOH. Recording cells were superfused in artificial cerebrospinal fluid (ACSF) by control with gravitational force. The ACSF contained (in mM) 130 NaCl, 5 KCl, 1 MgCl2, 2 CaCl2, 10 glucose, and 20 HEPES, adjusted to pH 7.4 with NaOH. Osmolarity was adjusted to 300 mOsm. The acidic ACSF was titrated to pH 6.8 by […]. […] If not specifically mentioned, drugs listed above were from Sigma Chemical (St. Louis, Mo.).
The procedure was repeated at least 2 times to ensure consistent data. […] ACSF-containing compounds were superfused for 1 min to ensure complete replacement of previous perfusate between treatments. […] A recording pipette containing 1 mM GDP-β-S was used in GTP dialysis. The GABA-B current was induced by 100 μM Baclofen at the beginning of dialysis (0, 1 and 2 min after whole-cell patch clamp). Then, Baclofen was used to re-stimulate the dialyzed neurons after 10-min dialysis (10, 11 and 12 min after whole-cell patch clamp).

A further assay has as its system ICS-induced pain. The assay can be described thus: Intermittent cold stress (ICS) mouse model of fibromyalgia, von Frey test. The conditions noted are these: SM-substance P 0.6 mg/kg alone. The assay is classed as in vivo, mice. As to the method:
Mechanical hyperalgesia was assessed by applying a 0.2 mN von Frey filament to the plantar surface of both hind paws. For each paw, the filament was applied for 5 times at 30-s intervals.
To induce fibromyalgia-like symptoms, mice were treated with intermittent cold stress, which produces long-lasting (more than 2 weeks) thermal hyperalgesia and mechanical allodynia, predominantly in females. Method: Mice were placed on stainless mesh plate in a cold room at 4° C. overnight (from 4:30 pm to 10:00 am), followed by intermittent cold stress with environment temperatures alternating between 24 and 4° C. every 30 min, from 10:00 am to 4:30 pm. These procedures were repeated twice. On day 3, the mice were adapted to 24 C for 1 h before behavioral testing.
The second fibromyalgia model is developed by Ueda's group, in which mice were treated with intermittent cold stress for 2 days (Nishiyori & Ueda, 2008). Mice treated with intermittent cold stress will develop long-lasting (>2 weeks) mechanical and thermal hyperalgesia. Analgesic effect of T1-11 was tested in these mice 5 day after intermittent cold stress (ICS). […] Moreover, we found T1-11 and substance P have synergistic effect in treating the ICS-induced pain.

The next assay relates to ASIC3. Put plainly: Whole-cell patch clamp of acid-induced current in CHO cells transfected with ASIC3. The assay is classed as cell-based.

“Also recorded” adds a separate entry of the source.

Take APETx2: in assay [1] (APETx2 2 pmole at the first acid injection), the “acid-induced hyperalgesia, co-injection of acid and APETx2” value is “abolished the transient hyperalgesia and prevented the development of chronic hyperalgesia”.

With `OC[C@H]1O[C@@H](n2cnc3c(NCc4ccc(Br)cc4)ncnc32)C(O)C1O` (some centres unmarked) [JMF2665], the “induction of outward current in ASIC3/SP-expressing muscle DRG neurons” value (from here on “induction of outward current”) in assay [2] is recorded as “can also induce outward currents”.

As to `CCNC(=O)[C@H]1O[C@@H](n2cnc3c(N)nc(NCCc4ccc(CCC(=O)O)cc4)nc32)C(O)C1O` (stereo in doubt) [CGS21680, reference compound], the “acid-induced hyperalgesia, co-injection with acidic saline” value in assay [1] is recorded as “partially inhibited acid-induced hyperalgesia; also recorded: showed partial analgesic effect”. Further, in assay [2] (CGS21680 high dose 10 μM), the “outward current in A2A−/− muscle afferent DRG neurons” value is on record as “induces an outward current”. For the same compound, the “induction of outward current” value in assay [2] was “can also induce outward currents”.

Consider “(Sar^9, Met(O2)^11)-substance P [SM-substance P, reference compound]”, for which the “analgesic effect on ICS-treated mice, SM-substance P alone” value with ICS-induced pain is reported as “did not show analgesic effect”.

Consider `OC[C@H]1O[C@@H](n2cnc3c(NCCc4c[nH]c5ccccc45)ncnc32)C(O)C1O` (stereo in doubt) [JMF1907], for which, in assay [2], the “induction of outward current” value is “can also induce outward currents”.

As to `O=C(O)c1ccccc1O` [salicylic acid, reference compound], in the assay with ASIC3, the “acid-induced current in CHO cells transfected with ASIC3” value is recorded as “blocked”.

For the compound `COc1ccccc1CC(=N)N1C[C@@H]2C(=O)CCC(c3ccccc3)(c3ccccc3)[C@@H]2C1` [RP67580, reference compound], in assay [2] (RP67580 (10 n=17)), the “inhibition of IT1-11 by NK1 receptor antagonist” value was “inhibited IT1-11”.

For `OC[C@H]1O[C@@H](n2cnc3c(NCc4cccc(O)c4)ncnc32)C(O)C1O` (some centres unmarked) [JMF1998], in assay [2], the “induction of outward current” value is given as “can also induce outward currents”.

For `O=C(Cc1ccccc1)Nc1nc2ccc(Cl)cc2c2nc(-c3ccco3)nn12` [MRS1220, reference compound], the “effect of antagonist on the analgesic effect of T1-11” value in assay [1] (MRS1220 200 pmole i.m.) was “abolished the analgesic effect of T1-11”. Also, the “inhibition of T1-11-induced outward current (IT1-11) by adenosine receptor antagonists” value in assay [2] is “reversely inhibited”.

`CNC(=O)[C@H]1O[C@@H](n2cnc3c(NCc4cccc(I)c4)ncnc32)[C@H](O)[C@@H]1O` [IB-MECA]: the “acid-induced hyperalgesia, co-injection with acidic saline” value in assay [1] is on record as “has no effect on acid-induced hyperalgesia; also recorded: did not have analgesic effect”.

Turning to `CCCn1cc2c(nc(NC(=O)Nc3ccc(OC)cc3)n3nc(-c4ccco4)nc23)n1` [MRE3008F20, reference compound], the “inhibition of T1-11-induced outward current (IT1-11) by adenosine receptor antagonists” value in assay [2] is “reversely inhibited”.
